Measured values: the RepoRT retention time repository (doi:10.1007/s00216-013-6954-6)

test: RP, Waters ACQUITY UPLC HSS T3, 150 × 2.1 mm, 1.8 µm; A: water + 0.1% formic acid; B: acetonitrile + 0.1% formic acid; gradient (min/%B) 0/5 1/5 16/95 18/95; conditions: stereoisomer not certain

Row | Compound | LC retention time
1 | NC(Cc1ccccc1)C(=O)NCC(=O)O (centres undefined) | 1.7 min
2 | CC(C)CC(N)C(=O)O (centres undefined) | 0.795 min
3 | CC(CCC(=O)O)C1CCC2C3C(O)CC4CC(O)CCC4(C)C3CC(O)C12C (centres undefined) | 8.94 min
4 | NC(N)=NCCCC(N)C(=O)O (centres undefined) | 0.413 min
5 | COc1cccc2[nH]cc(CN)c12 | 3.2 min
6 | CC(C)CC(NC(=O)C(N)Cc1ccccc1)C(=O)O (centres undefined) | 4.1 min
7 | O=C(O)CCCCCC(=O)O | 3.47 min
8 | O=C(O)CCCCC(=O)O | 2.33 min
9 | CCC(C)C(N)C(=O)NC(CC(C)C)C(=O)O (centres undefined) | 3.4 min
10 | NC(=O)NCCCC(N)C(=O)O (centres undefined) | 0.457 min
11 | O=C(O)CCCCCCCC(=O)O | 5.35 min
12 | Cn1cnc(CC(N)C(=O)O)c1 (centres undefined) | 0.407 min
13 | Nc1nc2c(ncn2C2OC(CO)C(O)C2O)c(=O)[nH]1 (centres undefined) | 1.1 min
14 | CCC(C)C(N)C(=O)O (centres undefined) | 0.795 min
15 | COc1cc(C=CCO)ccc1OC1OC(CO)C(O)C(O)C1O (centres undefined) | 3 min
16 | Cc1cn(C2CC(O)C(CO)O2)c(=O)[nH]c1=O (centres undefined) | 1.6 min
17 | COc1cc(CC2COC(c3ccc(O)c(OC)c3)C2CO)ccc1O (centres undefined) | 5.6 min
18 | NCCS(=O)(=O)O | 0.446 min
19 | O=Cc1c[nH]c2cccc(O)c12 | 5.1 min
20 | Nc1ncnc2nc[nH]c12 | 0.525 min
21 | O=C(O)CCCC(=O)O | 1.14 min
22 | O=Cc1c[nH]c2ccccc12 | 4.8 min
23 | CCC(C)C(NC(=O)C(N)Cc1ccc(O)cc1)C(=O)O (centres undefined) | 2.9 min

Row | Compound | LC retention time
24 | CC(C)CC(NC(=O)C(N)Cc1ccc(O)cc1)C(=O)O (centres undefined) | 3.2 min
25 | O=C(O)c1c[nH]c2ccccc12 | 4.7 min
26 | CC(C)C(NC(=O)C(N)Cc1ccccc1)C(=O)O (centres undefined) | 3 min
27 | CCC(C)C(NC(=O)C(N)CC(C)C)C(=O)O (centres undefined) | 3.3 min
28 | O=C(O)C1Cc2c([nH]c3ccccc23)CN1 (centres undefined) | 3.1 min
29 | CC(CCC(=O)O)C1CCC2C3C(O)CC4CC(O)CCC4(C)C3CCC12C (centres undefined) | 10.5 min
30 | O=C1CCC(C(=O)O)N1 (centres undefined) | 0.687 min
31 | NCc1c[nH]c2ccccc12 | 1.8 min
32 | CC(C)CC(N)C(=O)NC(Cc1ccc(O)cc1)C(=O)O (centres undefined) | 2.8 min
33 | O=c1[nH]c(=O)c2[nH]c(=O)[nH]c2[nH]1 | 0.643 min
34 | CC(C(=O)O)C(=O)O | 0.733 min
35 | CC(CCC(=O)NCCS(=O)(=O)O)C1CCC2C3C(O)CC4CC(O)CCC4(C)C3CC(O)C12C (centres undefined) | 7.57 min
36 | O=c1cc[nH]c(=O)[nH]1 | 0.638 min
37 | CCC(C)C(NC(=O)C(N)Cc1ccccc1)C(=O)O (centres undefined) | 3.8 min
38 | Cc1cc2nc3c(=O)[nH]c(=O)nc-3n(CC(O)C(O)C(O)CO)c2cc1C (centres undefined) | 3.92 min
39 | CCC(C)C(N)C(=O)NC(Cc1ccccc1)C(=O)O (centres undefined) | 3.9 min
40 | CC(C)CC(N)C(=O)NC(CC(C)C)C(=O)O (centres undefined) | 3.6 min
41 | O=C(O)Cc1ccccc1 | 3.6 min
42 | O=C(O)C1CCCN1 (centres undefined) | 0.482 min
43 | COn1cc(CN)c2ccccc21 | 3.7 min
44 | CC(CCC(=O)NCC(=O)O)C1CCC2C3C(O)CC4CC(O)CCC4(C)C3CC(O)C12C (centres undefined) | 7.92 min
45 | COc1cc2ccc(=O)oc2cc1O | 4.5 min
46 | CC(C)C(N)C(=O)NC(Cc1ccccc1)C(=O)O (centres undefined) | 3.3 min

Row | Compound | LC retention time
47 | COc1cc(C=CCO)cc(OC)c1OC1OC(CO)C(O)C(O)C1O (centres undefined) | 3.2 min
48 | CC(CCC(=O)O)C1CCC2C3CCC4CC(O)CCC4(C)C3CC(O)C12C (centres undefined) | 10.7 min
49 | CCCCCCCCCCCCCCCC(=O)OCC(O)COP(=O)([O-])OCC[N+](C)(C)C (centres undefined) | 11.6 min
50 | CCC(C)C(N)C(=O)NC(C(=O)O)C(C)CC (centres undefined) | 3.1 min
51 | CCCCCCCCC=CCCCCCCCC(=O)OCC(O)COP(=O)(O)OCC[N+](C)(C)C (centres undefined) | 12 min
52 | COc1cc2ccc(=O)oc2cc1OC1OC(CO)C(O)C(O)C1O (centres undefined) | 3.3 min
53 | CC12CCC(=O)C=C1CCC1C2C(O)CC2(C)C1CCC2(O)C(=O)CO (centres undefined) | 6.56 min
54 | CC(C)CC(NC(=O)C(N)C(C)C)C(=O)O (centres undefined) | 2.7 min
55 | NCC(=O)NC(Cc1ccccc1)C(=O)O (centres undefined) | 2.3 min
56 | CSCCCCCCCCC(N)C(=O)O (centres undefined) | 5.4 min
57 | Cn1c(=O)c2c(ncn2C)n(C)c1=O | 3.46 min
58 | CSCCCCCCCC(N)C(=O)O (centres undefined) | 4.6 min
59 | CC12CCC(=O)C=C1CCC1C2C(=O)CC2(C)C1CCC2(O)C(=O)CO (centres undefined) | 6.61 min
60 | CC(C)CC(N)C(=O)N1CCCC1C(=O)O (centres undefined) | 2.62 min
61 | O=C(O)C(O)Cc1ccccc1 (centres undefined) | 4.37 min
62 | O=c1ccc2cc(OC3OC(CO)C(O)C(O)C3O)c(O)cc2o1 (centres undefined) | 2.9 min
63 | CSCCC(N)C(=O)O (centres undefined) | 0.643 min
64 | Nc1ccc(C(=O)O)cc1 | 1.95 min
65 | O=c1[nH]cnc2c1ncn2C1OC(CO)C(O)C1O (centres undefined) | 0.839 min
66 | CS(=O)CCCCCCCCN=C=S (centres undefined) | 8.1 min
67 | CC(C)CC(N)C(=O)NC(Cc1ccccc1)C(=O)O (centres undefined) | 4.2 min
68 | O=C(O)CNC(=O)c1ccccc1 | 3.39 min

test: RP, Waters ACQUITY UPLC HSS T3, 100 × 1 mm, 1.8 µm; A: water + 0.1% formic acid, pH 3; B: acetonitrile + 0.1% formic acid, pH 3; gradient (min/%B) 0/5 1/5 16/95 18/95 20/5; conditions: stereoisomer not certain

Row | Compound | LC retention time
69 | CC(C)C(N)C(=O)NC(Cc1ccccc1)C(=O)O (stereo not drawn) [H-Val-Phe-OH] | 3.3 min
70 | CC12CCC(=O)C=C1CCC1C2C(O)CC2(C)C1CCC2(O)C(=O)CO (centres undefined) [hydrocortisone, cortisol] | 6.56 min
71 | COc1cc(CC2COC(c3ccc(O)c(OC)c3)C2CO)ccc1O (centres undefined) [Lariciresinol] | 5.6 min
72 | Cc1cn(C2CC(O)C(CO)O2)c(=O)[nH]c1=O (centres undefined) [Thymidine] | 1.6 min
73 | NCc1c[nH]c2ccccc12 [Indol-3-ylmethylamine (I3CH2NH2)] | 1.8 min
74 | CSCCCCCCCC(N)C(=O)O (centres undefined) [Pentahomo-Met] | 4.6 min
75 | CC(CCC(=O)NCCS(=O)(=O)O)C1CCC2C3C(O)CC4CC(O)CCC4(C)C3CC(O)C12C (centres undefined) [Taurocholic acid] | 7.57 min
76 | CCC(C)C(NC(=O)C(N)Cc1ccc(O)cc1)C(=O)O (stereo not drawn) [H-Tyr-Ile-OH] | 2.9 min
77 | CC(C)C(NC(=O)C(N)Cc1ccccc1)C(=O)O (stereo not drawn) [H-Phe-Val-OH] | 3 min
78 | CSCCC(N)C(=O)O (centres undefined) [Methionine] | 0.643 min
79 | CC(C(=O)O)C(=O)O [Methylmalonic acid] | 0.733 min
80 | CC(C)CC(N)C(=O)NC(CC(C)C)C(=O)O (stereo not drawn) [H-Leu-Leu-OH] | 3.6 min
81 | CC(C)CC(NC(=O)C(N)Cc1ccccc1)C(=O)O (stereo not drawn) [H-Phe-Leu-OH] | 4.1 min
82 | Cn1cnc(C[C@H](N)C(=O)O)c1 [1-Methyl-L-Histidine] | 0.407 min
83 | CCC(C)C(N)C(=O)NC(C(=O)O)C(C)CC (stereo not drawn) [H-Ile-Ile-OH] | 3.1 min
84 | CC(C)CC(N)C(=O)O (centres undefined) [Leucine] | 0.795 min
85 | O=c1cc[nH]c(=O)[nH]1 [Uracil] | 0.638 min
86 | CC(C)CC(N)C(=O)NC(Cc1ccccc1)C(=O)O (centres undefined) [H-Leu-Phe -OH] | 4.2 min
87 | COc1cc(C=CCO)ccc1OC1OC(CO)C(O)C(O)C1O (centres undefined) [Coniferin] | 3 min
88 | O=c1ccc2cc(OC3OC(CO)C(O)C(O)C3O)c(O)cc2o1 (centres undefined) [Esculin] | 2.9 min
89 | CC(C)CC(NC(=O)C(N)C(C)C)C(=O)O (stereo not drawn) [H-Val-Leu-OH] | 2.7 min
90 | Nc1ncnc2nc[nH]c12 [Adenine] | 0.525 min
91 | O=c1[nH]cnc2c1ncn2C1OC(CO)C(O)C1O (centres undefined) [Inosine] | 0.839 min

Row | Compound | LC retention time
92 | O=C(O)C1Cc2c([nH]c3ccccc23)CN1 (centres undefined) [3-Carboxy-1,2,3,4-tetrahydro-2-carboline] | 3.1 min
93 | CC(CCC(=O)NCC(=O)O)C1CCC2C3C(O)CC4CC(O)CCC4(C)C3CC(O)C12C (centres undefined) [Glycocholic acid] | 7.92 min
94 | COn1cc(CN)c2ccccc21 [1-MeO-I3CH2NH2] | 3.7 min
95 | CCC(C)C(NC(=O)C(N)CC(C)C)C(=O)O (stereo not drawn) [H-Leu-Ile-OH] | 3.3 min
96 | O=C(O)C(O)Cc1ccccc1 (centres undefined) [phenyllactic acid] | 4.37 min
97 | NCC(=O)NC(Cc1ccccc1)C(=O)O (stereo not drawn) [H-Gly-Phe-OH] | 2.3 min
98 | CC(C)CC(N)C(=O)NC(Cc1ccc(O)cc1)C(=O)O (stereo not drawn) [H-Leu-Tyr-OH] | 2.8 min
99 | CS(=O)CCCCCCCCN=C=S (stereo not drawn) [8-MeSO-Octyl-NCS] | 8.1 min
100 | NCCS(=O)(=O)O [Taurine] | 0.446 min
101 | Cn1c(=O)c2c(ncn2C)n(C)c1=O [Caffeine] | 3.46 min
102 | CSCCCCCCCCC(N)C(=O)O (centres undefined) [Hexahomo-Met] | 5.4 min
103 | O=C(O)C1CCCN1 (centres undefined) [Proline] | 0.482 min
104 | NC(Cc1ccccc1)C(=O)NCC(=O)O (stereo not drawn) [H-Phe-Gly-OH] | 1.7 min
105 | NC(N)=NCCCC(N)C(=O)O (centres undefined) [Arginine] | 0.413 min
106 | O=C(O)Cc1ccccc1 [Phenylacetic acid] | 3.6 min
107 | Nc1ccc(C(=O)O)cc1 [paba] | 1.95 min
108 | O=c1[nH]c(=O)c2[nH]c(=O)[nH]c2[nH]1 [Uric acid] | 0.643 min
109 | Cc1cc2nc3c(=O)[nH]c(=O)nc-3n(CC(O)C(O)C(O)CO)c2cc1C (centres undefined) [Riboflavin] | 3.92 min
110 | O=C(O)CCCC(=O)O [Glutaric acid] | 1.14 min
111 | CCC(C)C(NC(=O)C(N)Cc1ccccc1)C(=O)O (stereo not drawn) [H-Phe-Ile-OH] | 3.8 min
112 | O=C(O)c1c[nH]c2ccccc12 [Indole-3-carboxylic acid (I3CO2H)] | 4.7 min
113 | CC12CCC(=O)C=C1CCC1C2C(=O)CC2(C)C1CCC2(O)C(=O)CO (centres undefined) [Cortisone] | 6.61 min
114 | CC(CCC(=O)O)C1CCC2C3CCC4CC(O)CCC4(C)C3CC(O)C12C (centres undefined) [Deoxycholic acid] | 10.7 min
